From patent publication US20260335282A1, “NOVEL 3-ARYLIDENE-2-INDOLINONE DERIVATIVES FOR THERAPEUTIC USE” (ISTANBUL UNIVERSITESI REKTORLUGU, priority 2022, published 2026)
pIC50: −log10 of the molar value.

Key:
HCT-116 cells = assay: MTT cytotoxicity, colon cancer cells HCT-116; type: cell-based, human; conditions: no * mark (incubation time not specified)
Method in brief: (§1)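 Cells were seeded at 5000 per well and treated next day with compound at 0.1, 1, 5 and 10 μM (final) for 48 and/or 72 h, with matched DMSO controls. MTT was added for 4 h and formazan was dissolved in DMSO and read at 570/630 nm. % viability against control gave IC50 from dose-response curves.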

HT-29 cells = assay: MTT cytotoxicity, colon cancer cells HT-29; type: cell-based, human; conditions: MTT, no * mark (incubation time not specified)
Method in brief: as §1

A549 cells = assay: MTT cytotoxicity, lung cancer cells A549; type: cell-based, human; conditions: no * mark (incubation time not specified)
Method in brief: (§2)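 Viability was quantified by MTT reduction following 48 and/or 72 h compound exposure at four concentrations (0.1, 1, 5, 10 μM). Values are percentages of DMSO-treated controls, with IC50 fitted from dose-response data.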

MCF-7 cells = assay: MTT cytotoxicity, breast cancer cells MCF-7; type: cell-based, human; conditions: for pIC50: MTT, no * mark (incubation time not specified)
Method in brief: as §2

MDA-MB-231 cells = assay: MTT cytotoxicity, breast cancer cells MDA-MB-231; type: cell-based, human; conditions: read-out: IC50, MDA-MB-231 (breast); MTT, no * mark (incubation time not given)
Method in brief: as §2

HUVEC cells = assay: MTT cytotoxicity, healthy cells HUVEC; type: cell-based, human; conditions: for pIC50: MTT, no * mark (incubation time not specified)
Method in brief: as §2

MIAPaCa-2 cells = assay: MTT cytotoxicity, pancreas cancer cells MIAPaCa-2; type: cell-based, human; conditions: MTT, no * mark (incubation time not specified)
Method in brief: as §1

[1] = test system: general tyrosine kinase activity in HCT116 colon cancer cells; assay: General tyrosine kinase activity (ELISA) in HCT-116 cells; type: cell-based, human; conditions: 72 hours, IC50 concentration
Protocol: Takara Universal Tyrosine Kinase Assay Kit is used to determine the effects of 11 2-indolinone compounds (Y1, Y2, Y3, Y4, Y5, Y8, […], […], Y21, Y23, 20C, 22C) on general tyrosine kinase activity in cancer cells. Cells are seeded in 6-well plates (4.10^5 cells/well) and the IC50 concentration of each selected molecule is performed to the cells for 48 or 72 hours. Cells in the control group are incubated with medium only. At the end of the incubation period, the cells in each well are washed with PBS and cells are removed from the wells using a cell scraper via 1 ml of the extraction buffer in the kit. The cell lysate is transferred to ependorf tubes and centrifuged at 10.000 g for 10 minutes at +4° C. and the supernatant is used as a sample for activity determination. […] The reaction is finished by adding 100 μl of stop solution to each well and the optical density in each well is measured at 405 nm with a microplate reader (BioTek, USA). The tyrosine kinase activity in each sample is calculated from the standard curve obtained from the absorbance values of the standard solutions with the kit (Chan W Y, Lau P M, Yeung K W, Kong S K. The second generation tyrosine kinase inhibitor dasatinib induced eryptosis in human erythrocytes—An in vitro study. Toxicol Lett. 2018; 295:10-21). […]

MCF-10F/Beas2b cells = assay: MTT cytotoxicity, healthy cells MCF-10F/Beas2b; type: cell-based, human
Method in brief: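 Following seeding and next-day dosing at 0.1, 1, 5 and 10 μM, plates incubate 48 and/or 72 h. MTT is then applied for 4 h and dissolved crystals measured at 570 nm (630 nm reference); cell-free compound+MTT wells control for interference, and IC50 is calculated per compound.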

A498 cells = assay: MTT cytotoxicity, kidney cancer cells A498; type: cell-based, human; conditions: MTT
Method in brief: as §2

CAKI-1 cells = assay: MTT cytotoxicity, kidney cancer cells CAKI-1; type: cell-based, human
Method in brief: as §2

human cancer cells = assay: MTT cell viability, human cancer cells overall; type: cell-based; conditions: cell line as discussed at the place
Description: The cytotoxicity, general tyrosine kinase inhibitory effects and cell death (apoptosis/necrosis) assays of 1-benzyl-3-(1H-indol-3-ylmethylidene)-1,3-dihydro-2H-indol-2-one derivatives (Formula 5) of the present invention are studied by the following methods. […] HUVEC (human umbilical vein endothelial cell), MCF-10F (human breast epithelial cell) and Beas2b (human lung bronchial epithelial cell) cell lines have been used as healthy control cells in MTT experiments.
Beas2b (human lung bronchiole epithelial cell) and HEK293 (renal tubule epithelium) cells used as normal cell lines were cultured in RPMI medium, and HUVEC (human umbilical cord endothelial cells) and MCF-10F (human breast epithelial cell) cells are cultured in DMEM medium containing 100 µg/ml penicillin/streptomycin. The cells, which covered 70% of the culture flask, are washed with phosphate buffer and then removed from the surface of the flask by application of trypsin-ethylenediamine tetraacetic acid (Trypsin-EDTA; 0.25%) solution, passaged, counted and seeded on appropriate plates before each experiment. Cells are treated with a total of 45 2-indolinone compounds (5) at concentrations of 0.1, 1, 5 and 10 μM. Stock compounds are prepared in 1 ml dimethylsulfoxide (DMSO) and 4 different dilutions were prepared with medium and performed to the cells. Control group cells are treated with DMSO at a similar concentration to the experimental groups.
MTT (3-(4,5-dimethylthiazol-2-yl)-2,5-diphenyl-2H-tetrazolium bromide) colorimetric assay provides quantitation of viable cells with ongoing mitochondrial activity in culture medium. According to the standard procedure in cell culture conditions, cells are maintained in RPMI-1640 and DMEM culture media containing 10% FBS and 1% penicillin/streptomycin. The trypan blue test is used for cell counts.
The effects of 45 2-indolinone compounds (5) on cell viability in all cancer cell lines are investigated by MTT assay. Cells are seeded in a 96-well flat bottom plate with 5000 cells in each well and 2-indolinone compounds (5) at concentrations of 0.1, 1, 5 and 10 μM are performed to the cells the next day. After 48 and/or 72 hours following treatment with 2-indolinone compounds, 50 μl of the supernatant is slowly discarded (as it was acid medium) and MTT at a concentration of 5 mg/ml is added to each well in a volume of 10 μl. After incubation for 4 hours, the formazan crystals formed in the wells are dissolved by adding 100 μl DMSO and the optical density is read at 570 nm test wavelength and 630 nm reference wavelength. Cell viability is expressed as % cell viability by comparing the absorbance of control and test wells. IC50 value is calculated from the dose-response curves prepared for each compound. In addition, the possible DMSO effect is eliminated by preparing negative control wells compatible with the amount of DMSO contained in the compounds. To understand the reaction of the compounds with MTT, cell-free (MTT+compounds) negative controls are prepared at the concentrations used (Mosmann, 1983). […] The absorbance values obtained are compared to the control and statistically evaluated by unpaired t-test using “Graphpad Prism 5.04” software. “P<0.05” is accepted as significant. When evaluating cytotoxic effects, the present inventors aim for the inventive compounds to be effective in cancer cells and ineffective in healthy cells. […]

FGFR1 = conditions: Liang et al. 2012; cited from earlier work
primary tumor = conditions: combination with docetaxel, Patyna et al. 2006; cited from earlier work
[2] = *: effective 72 hours after incubation
[3] = no * mark (incubation time not specified)

Compound | pIC50 (HCT-116 cells) | pIC50 (HT-29 cells) | pIC50 (A549 cells) | pIC50 (MCF-7 cells) | pIC50 (MDA-MB-231 cells) | pIC50 (HUVEC cells) | pIC50 (MIAPaCa-2 cells) | further results
Cc1cccc(CN2C(=O)/C(=C\c3c[nH]c4ccccc34)c3cc(Cl)ccc32)c1 [20C] | 6.57 | 5.94 | 5.39 | < 5.00 | < 5.00 | 5.82 | 5.86 | Selectivite Index, HUVEC (Table 2) (HUVEC cells; HUVEC vs colon or pancreas cancer cells, cancer line not given): 5.63; tyrosine kinase activity compared to control [1]: did not cause a significant change; Selectivite Index, MCF-10F/Beas2b (Table 2) (MCF-10F/Beas2b cells; MCF-10F/Beas2b vs colon or pancreas cancer cells, cancer line not given): 13.63; pIC50 (MCF-10F/Beas2b cells; MTT, *: effective 72 hours after incubation): 5.43; pIC50 (A498 cells; [2]): 6.01; pIC50 (CAKI-1 cells; [2]): 5.21
O=C1/C(=C\c2c[nH]c3ccccc23)c2cccc(Cl)c2N1Cc1ccccc1 [22C] | < 5.00 | < 5.00 | < 5.00 | 6.24 | 5.08 | < 5.00 | < 5.00 | selectivity index (SI) (MCF-7 cells; MCF-10F vs MCF-7): > 17; Selectivite Index (SI), HUVEC (Table 1) (HUVEC cells; HUVEC vs breast or kidney cancer cells, cancer line not given): > 17.54; potency/selectivity compared with sunitinib malate (human cancer cells): much more potent and have higher SI values than the reference compound sunitinib malate; Selectivite Index (SI), MCF-10F/Beas2b (Table 1) (MCF-10F/Beas2b cells; MCF-10F/Beas2b vs breast or kidney cancer cells, cancer line not given): > 17.54; pIC50 (A498 cells; [3]): < 5.00; pIC50 (CAKI-1 cells; [3]): 5.60
Cc1c[nH]c(/C=C2\C(=O)Nc3ccccc32)c1CCC(=O)O [SU5402, 3-[4-methyl-2-[(Z)-(2-oxo-1H-indol-3-ylidene)methyl]-1H-pyrrol-3-yl]propanoic acid] | – | – | – | – | – | – | – | inhibitory activity against FGFR1 vs SU4984 (FGFR1): better inhibitory activity against FGFR1 than SU4984
Cc1[nH]c(/C=C2\C(=O)Nc3ccc(F)cc32)c(C)c1C(=O)NCC(O)CN1CCOCC1 (stereo not shown) [SU14813] | – | – | – | – | – | – | – | inhibition of primary tumor growth and survival (primary tumor): significantly improve both inhibition of primary tumor growth and survival of tumor-bearing mice
